The text below walks through data of patent publication US5914319A, “Antithrombotic agents” (Eli Lilly and Company, priority 1995, dated 1999).

Common to all, as to assay type: biochemical
Assay [1] relates to Human plasma. Kind of assay: Human plasma anticoagulation, activated partial thromboplastin time (APTT). As to conditions: concentration required to double the APTT, linear extrapolation. A digest of the protocol: (§1)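 In plasma from human donors, spiked with a range of compound levels, an automated coagulometer recorded clot formation after thromboplastin (PT), Actin then calcium (APTT) or 10 NIH units/mL thrombin (TT); doubling concentrations were extrapolated linearly.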

Assay [2] has as its system Human plasma. Put plainly: Human plasma anticoagulation, thrombin time (TT). As to conditions: concentration required to double the thrombin time, linear extrapolation. A digest of the protocol:
as §1

For assay [3], the system named is Human plasma. Put plainly: Human plasma anticoagulation, prothrombin time (PT). As to conditions: concentration required to double the PT, linear extrapolation. A digest of the protocol: as §1
Assay [4] has as its target human thrombin (Homo sapiens, UniProt P00734). Put plainly: Inhibition of the amidase activity of thrombin (Kass).
Setting [5] is: mean over a range of test compound concentrations, […].

Counter-ions that a name gives are not always drawn. Like-named read-outs stand apart in the source and are kept apart here.

On to `N=C(N)c1ccc(CNC(=O)[C@@H]2C[C@@H]3CCCC[C@@H]3N2C(=O)[C@H]2CCCCN2)cc1` [Example 20, D-hPro-Ohi-p-NHCH2 C6 H4 C(NH)NH2.3HCl], for which the “Human Plasma Anticoagulation 2× Clotting time (ng/mL) APTT” value in assay [1] was 550 ng/mL. Besides, the “Human Plasma Anticoagulation 2× Clotting time (ng/mL) TT” value in assay [2] is listed as 62 ng/mL. Further, the “Human Plasma Anticoagulation 2× Clotting time (ng/mL) PT” value in assay [3] was 600 ng/mL. In assay [4] (setting [5]), the “Kass × 10^6 (L/mole) Human Thrombin” value is reported as 10 × 10^6 L/mole.

Regarding `Cl.Cl.N=C(N)c1ccc(CNC(=O)CN(CCc2ccccc2)C(=O)[C@H]2CCCCN2)cc1` [Example 21, D-hPro-N(PhCH2CH2)Gly-p-NHCH2 C6 H4 C(NH)NH2.2HCl], in assay [1], the “Human Plasma Anticoagulation 2× Clotting time (ng/mL) APTT” value is listed as 2,000 ng/mL. The “Human Plasma Anticoagulation 2× Clotting time (ng/mL) TT” value in assay [2] is recorded as 160 ng/mL. Also, in assay [3], the “Human Plasma Anticoagulation 2× Clotting time (ng/mL) PT” value was 1,000 ng/mL. The “Kass × 10^6 (L/mole) Human Thrombin” value in assay [4] (setting [5]) is 3.6 × 10^6 L/mole.

As for `Cl.Cl.N=C(N)c1ccc(CNC(=O)C2CC3CCCCC3N2C(=O)C2NCCC3CCCCC32)cc1` [Example 42, D-1-Piq-cis-Ohi-p-NHCH2 C6 H4 C(NH)NH2.2HCl], the “Human Plasma Anticoagulation 2× Clotting time (ng/mL) APTT” value in assay [1] is listed as 270 ng/mL. The “Human Plasma Anticoagulation 2× Clotting time (ng/mL) TT” value in assay [2] is 20 ng/mL. In addition, the “Human Plasma Anticoagulation 2× Clotting time (ng/mL) PT” value in assay [3] is 320 ng/mL. In addition, the “Kass × 10^6 (L/mole) Human Thrombin” value in assay [4] (setting [5]) is given as 38. × 10^6 L/mole.

As for `Cl.Cl.Cl.N=C(N)NCCCCNC(=O)[C@@H]1CCCN1C(=O)[C@@H]1NCC[C@H]2CCCC[C@H]21` [Example 61, (4aR,8aR)-Perhydoisoquinoline-1(R)-carbonyl-Pro-Agm.3HCl], the “Human Plasma Anticoagulation 2× Clotting time (ng/mL) APTT” value in assay [1] is on record as 679 ng/mL. Also, the “Human Plasma Anticoagulation 2× Clotting time (ng/mL) TT” value in assay [2] is listed as 45 ng/mL. Further, in assay [3], the “Human Plasma Anticoagulation 2× Clotting time (ng/mL) PT” value is reported as 756 ng/mL. In addition, the “Kass × 10^6 (L/mole) Human Thrombin” value in assay [4] (setting [5]) is recorded as 63 × 10^6 L/mole.

In the case of `Nc1ccc(CNC(=O)[C@@H]2CCCN2C(=O)[C@@H](CC2CCCCC2)NCC(=O)O)c(F)c1` [Example 64, HO2 CCH2 -D-Cha-Pro-4-NHCH2 -3-F-C6 H3 NH2.HCl], the “Human Plasma Anticoagulation 2× Clotting time (ng/mL) APTT” value in assay [1] was 900 ng/mL. Also, the “Human Plasma Anticoagulation 2× Clotting time (ng/mL) TT” value in assay [2] is given as 23 ng/mL. In assay [3], the “Human Plasma Anticoagulation 2× Clotting time (ng/mL) PT” value was 650 ng/mL. The “Kass × 10^6 (L/mole) Human Thrombin” value in assay [4] (setting [5]) is reported as 15 × 10^6 L/mole.

For the molecule `CCS(=O)(=O)N[C@H](CC1CCCCC1)C(=O)N1CCC[C@H]1C(=O)NCc1ccc(N)cc1F` [Example 82, EtSO2 -D-Cha-Pro-4-NHCH2 -3-F-C6 H3 NH2.HCl], the “Human Plasma Anticoagulation 2× Clotting time (ng/mL) APTT” value in assay [1] is on record as 3,800 ng/mL. The “Human Plasma Anticoagulation 2× Clotting time (ng/mL) TT” value in assay [2] is 130 ng/mL. Also, the “Human Plasma Anticoagulation 2× Clotting time (ng/mL) PT” value in assay [3] was 3,000 ng/mL. In addition, in assay [4] (setting [5]), the “Kass × 10^6 (L/mole) Human Thrombin” value is 5.0 × 10^6 L/mole.

Take `N=C(N)c1ccc(CNC(=O)[C@@H]2CCCN2C(=O)[C@H](NCC(=O)O)C2CCCCC2)cc1` [Example 86, HOOCCH2 -D-Chg-Pro-p-NHCH2 C6 H4 C(NH)NH2.HCl]: in assay [1], the “Human Plasma Anticoagulation 2× Clotting time (ng/mL) APTT” value is recorded as 81 ng/mL. Further, the “Human Plasma Anticoagulation 2× Clotting time (ng/mL) TT” value in assay [2] is given as 4 ng/mL. In addition, the “Human Plasma Anticoagulation 2× Clotting time (ng/mL) PT” value in assay [3] is 180 ng/mL.

Take `N=C(N)c1ccc(CNC(=O)[C@@H]2CCCN2C(=O)[C@@H](CCc2ccccc2)NCC(=O)O)cc1` [Example 87, HOOCCH2 -D-hPhe-Pro-p-NHCH2 C6 H4 C(NH)NH2.HCl]: in assay [1], the “Human Plasma Anticoagulation 2× Clotting time (ng/mL) APTT” value is 260 ng/mL. Besides, in assay [2], the “Human Plasma Anticoagulation 2× Clotting time (ng/mL) TT” value is 9 ng/mL. Moreover, in assay [3], the “Human Plasma Anticoagulation 2× Clotting time (ng/mL) PT” value was 310 ng/mL. Further, in assay [4] (setting [5]), the “Kass × 10^6 (L/mole) Human Thrombin” value is listed as 30 × 10^6 L/mole.

As to `N=C(N)c1ccc(CNC(=O)[C@@H]2CCCN2C(=O)[C@@H](CCC2CCCCC2)NCC(=O)O)cc1` [Example 88, HOOCCH2 -D-hCha-Pro-p-NHCH2 C6 H4 C(NH)NH2.HCl], the “Human Plasma Anticoagulation 2× Clotting time (ng/mL) APTT” value in assay [1] is on record as 100 ng/mL. Also, the “Human Plasma Anticoagulation 2× Clotting time (ng/mL) TT” value in assay [2] is 4 ng/mL. The “Human Plasma Anticoagulation 2× Clotting time (ng/mL) PT” value in assay [3] was 200 ng/mL.

In the case of `Cl.N=C(N)c1ccc(CNC(=O)CN(CCc2ccccc2)C(=O)CNCC(=O)O)cc1` [Example 89, HOOCCH2 -Gly-N-C6 H5 CH2 CH2 Gly-p-NHCH2 C6 H4 C(NH)NH2.HCl], the “Human Plasma Anticoagulation 2× Clotting time (ng/mL) APTT” value in assay [1] is 51,000 ng/mL. Moreover, the “Human Plasma Anticoagulation 2× Clotting time (ng/mL) TT” value in assay [2] is given as 570 ng/mL. Further, in assay [3], the “Human Plasma Anticoagulation 2× Clotting time (ng/mL) PT” value was 37,000 ng/mL.

Take `CCC(CC)C(=O)N[C@@H](CCC(=O)O)C(=O)N1CCC[C@H]1C(=O)NCc1ccc(C(=N)N)cc1` [Example 90, (C2 H5)2 CHCO-Glu-Pro-p-NHCH2 C6 H4 C(NH)NH2.HCl]: the “Human Plasma Anticoagulation 2× Clotting time (ng/mL) APTT” value in assay [1] is recorded as 14,500 ng/mL. The “Human Plasma Anticoagulation 2× Clotting time (ng/mL) TT” value in assay [2] is on record as 330 ng/mL. Also, in assay [3], the “Human Plasma Anticoagulation 2× Clotting time (ng/mL) PT” value was 14,600 ng/mL.

In the case of `CCC(CC)C(=O)N[C@@H](CCS(C)(=O)=O)C(=O)N1CCC[C@H]1C(=O)NCc1ccc(C(=N)N)cc1` [Example 91, (C2 H5)2 CHCO-Met(O2)-Pro-p-NHCH2 C6 H4 C(NH)NH2.HCl], the “Human Plasma Anticoagulation 2× Clotting time (ng/mL) APTT” value in assay [1] is listed as 3,000 ng/mL. Moreover, in assay [2], the “Human Plasma Anticoagulation 2× Clotting time (ng/mL) TT” value is reported as 63 ng/mL. Also, the “Human Plasma Anticoagulation 2× Clotting time (ng/mL) PT” value in assay [3] is given as 3,500 ng/mL.

Take `CS(=O)(=O)CC(=O)N[C@H](CC1CCCCC1)C(=O)N1CCC[C@H]1C(=O)NCc1ccc(C(=N)N)cc1` [Example 92, MeSO2 CH2 CO-D-Cha-Pro-p-NHCH2 C6 H4 C(NH)NH2.HCl]: the “Human Plasma Anticoagulation 2× Clotting time (ng/mL) APTT” value in assay [1] was 210 ng/mL. For the same molecule, in assay [2], the “Human Plasma Anticoagulation 2× Clotting time (ng/mL) TT” value was 8.9 ng/mL. Besides, in assay [3], the “Human Plasma Anticoagulation 2× Clotting time (ng/mL) PT” value is 340 ng/mL.

For the molecule `CCS(=O)(=O)N[C@H](CC1CCCCC1)C(=O)N1CCC[C@H]1C(=O)NCc1ccc(C(=N)N)cc1F.Cl` [Example 93, EtSO2 -D-Cha-Pro-4-NHCH2 -3-F-benzamidine.HCl], the “Human Plasma Anticoagulation 2× Clotting time (ng/mL) APTT” value in assay [1] is recorded as 35 ng/mL. Moreover, in assay [2], the “Human Plasma Anticoagulation 2× Clotting time (ng/mL) TT” value is recorded as 5.9 ng/mL. Besides, the “Human Plasma Anticoagulation 2× Clotting time (ng/mL) PT” value in assay [3] is given as 140 ng/mL. In addition, in assay [4] (setting [5]), the “Kass × 10^6 (L/mole) Human Thrombin” value is 970 × 10^6 L/mole.

For the molecule “D-hPro-Pro-p-NHCH2 C6 H4 C(NH)NH2.HCl [Example 17]”, in assay [1], the “Human Plasma Anticoagulation 2× Clotting time (ng/mL) APTT” value is recorded as 370 ng/mL. Also, in assay [2], the “Human Plasma Anticoagulation 2× Clotting time (ng/mL) TT” value is 26 ng/mL. Also, the “Human Plasma Anticoagulation 2× Clotting time (ng/mL) PT” value in assay [3] is given as 400 ng/mL.

Regarding “EtSO2 -D-Phe-Pro-p-NHCH2 --C6 H4 C(=NH)NH2.HCl [Example 23]”, in assay [1], the “Human Plasma Anticoagulation 2× Clotting time (ng/mL) APTT” value is on record as 86 ng/mL. Besides, the “Human Plasma Anticoagulation 2× Clotting time (ng/mL) TT” value in assay [2] is recorded as 7 ng/mL. Also, in assay [3], the “Human Plasma Anticoagulation 2× Clotting time (ng/mL) PT” value is 120 ng/mL. Moreover, the “Kass × 10^6 (L/mole) Human Thrombin” value in assay [4] (setting [5]) is recorded as 770 × 10^6 L/mole.

Turning to “EtSO2 -D-Phe-Pro-p-NHCH2 CH2 C6 H4 CNH(NH)NH2.HCl [Example 35]”, the “Human Plasma Anticoagulation 2× Clotting time (ng/mL) APTT” value in assay [1] was 50,400 ng/mL. The “Human Plasma Anticoagulation 2× Clotting time (ng/mL) TT” value in assay [2] is 4,500 ng/mL. Further, the “Human Plasma Anticoagulation 2× Clotting time (ng/mL) PT” value in assay [3] is recorded as 78,400 ng/mL.

With “EtSO2 -Phg-cis-Ohi-p-NHCH2 C6 H4 C(NH)NH2.HCl [Example 44]”, in assay [1], the “Human Plasma Anticoagulation 2× Clotting time (ng/mL) APTT” value is reported as 100 ng/mL. The “Human Plasma Anticoagulation 2× Clotting time (ng/mL) TT” value in assay [2] is recorded as 4. ng/mL. Also, the “Human Plasma Anticoagulation 2× Clotting time (ng/mL) PT” value in assay [3] was 170 ng/mL. Besides, the “Kass × 10^6 (L/mole) Human Thrombin” value in assay [4] came out at 630.

As for “HOOCCH2 -D-Phe-Pro(4-cis-isoamyl)-p-NHCH2 C6 H4 C(NH)NH2.HCl [Example 50]”, in assay [1], the “Human Plasma Anticoagulation 2× Clotting time (ng/mL) APTT” value is 460 ng/mL. In assay [2], the “Human Plasma Anticoagulation 2× Clotting time (ng/mL) TT” value is given as 35 ng/mL. Besides, the “Human Plasma Anticoagulation 2× Clotting time (ng/mL) PT” value in assay [3] is 420 ng/mL.

On to “HOOCCH2 -D-Phe-Pro-p-NHCH2 C6 H4 C(NH)NH2.HCl [Example 46]”, for which the “Human Plasma Anticoagulation 2× Clotting time (ng/mL) APTT” value in assay [1] was 67 ng/mL. In addition, the “Human Plasma Anticoagulation 2× Clotting time (ng/mL) TT” value in assay [2] is 2. ng/mL. The “Human Plasma Anticoagulation 2× Clotting time (ng/mL) PT” value in assay [3] is listed as 77 ng/mL.

As for NMI-D-Phe-Pro-Agm.HCl [Example 4], the “Human Plasma Anticoagulation 2× Clotting time (ng/mL) TT” value in assay [2] is 230 ng/mL. The “Kass × 10^6 (L/mole) Human Thrombin” value in assay [4] (setting [5]) is 13. × 10^6 L/mole.
